Measured values published in US9475808B2, “Inhibitor compounds of phosphodiesterase type 10A” (AbbVie Deutschland GmbH & Co. KG, priority 2013, dated 2016).

Experiments:
PDE10A = PDE10A (UniProt Q9Y233); assay: Measurement of PDE activity (HTRF cAMP assay, recombinant enzyme); assay type: biochemical; details: 20 nM cyclic nucleotide substrate, 60 minutes at 29 C
Experimental: The recombinant PDE proteins are used in in vitro enzymatic reaction for measurement of PDE activity. These recombinant proteins, including PDE10A (human, rat and mouse PDE10) and isoforms of PDEs 1, 3, 4, and 5, were purchased from commercial vendor BPS Bioscience. The enzymatic activity of PDEs was determined by cAMP measurement kit from CisBio (IBA) using HTRF technology.
The PDE enzymatic reaction was carried out in assay buffer (20 mM Tris-HCl pH7.5, 10 mM MgCl2, 0.1% bovine serum albumin) containing enzyme and substrate. The PDE enzymes concentration ranged from 10 pM-250 pM, depending on each enzyme's specific activity. The substrate cyclic nucleotide (cAMP or cGMP) concentration used in the assay was 20 nM for PDE10, and 100 nM for other PDEs. The inhibitory effect of compound was determined by incubating various concentration of inhibitor in the enzymatic assay. Typically, compound was serial diluted in DMSO then further diluted in assay buffer. Next, the compound at varying concentration was mixed with PDE enzyme. The reaction was initiated by addition of cyclic nucleotide substrate, and incubated for 60 minutes at 29 C. The reaction was stopped by addition of lysis buffer from assay kit. The cAMP-d2 and anti-cAMP cryptate in the lysis buffer detected the level of cAMP left from the PDE hydrolysis reaction. The PDE activity is reversely correlated with the amount of cAMP left in the reaction and can be converted to the percent activity of an uninhibited control (100%). Thus, IC50 value of inhibitor can be obtained by plotting inhibitor concentration against PDE activity at that concentration.

[1] = Determination of the microsomal half-life / microsomal clearance, human liver microsomes; details: 0.5 μM test substance, 0.25 mg microsomal protein/ml, pH 7.4, 37° C., NADPH
Experimental: (§1) The test substances were incubated in a concentration of 0.5 μM as follows:
(§2) 0.5 μM test substance are preincubated together with liver microsomes from different species (from rat, human or other species) (0.25 mg of microsomal protein/ml) in 0.05 M potassium phosphate buffer of pH 7.4 in microtiter plates at 37° C. for 5 min. The reaction is started by adding NADPH (1 mg/mL). After 0, 5, 10, 15, 20 and 30 min, 50 μl aliquots are removed, and the reaction is immediately stopped and cooled with the same volume of acetonitrile. The samples are frozen until analyzed. The remaining concentration of undegraded test substance is determined by MSMS. The half-life (T½) is determined from the gradient of the signal of test substance/unit time plot, it being possible to calculate the half-life of the test substance, assuming first order kinetics, from the decrease in the concentration of the compound with time. The microsomal clearance (mCl) is calculated from mCl=ln 2/T½/(content of microsomal protein in mg/ml)×1000 [ml/min/mg]

[2] = Determination of the microsomal half-life / microsomal clearance, rat liver microsomes; details: 0.5 μM test substance, 0.25 mg microsomal protein/ml, pH 7.4, 37° C., NADPH
Experimental: as §1, §2

| Compound | IC50 (PDE10A) | Human mCl [1] | Rat mCl [2] |
| --- | --- | --- | --- |
| 2-(2-Imidazo[1,2-a]pyridin-2-yl-ethyl)-5-methyl-7-morpholin-4-yl-3,5-dihydro-2H-pyrrolo[3,4-c]pyridine-1,6-dione [Example 23] | > 500 nM | – | – |
| 5-Methyl-7-morpholin-4-yl-2-(2-[1,2,4]triazolo[1,5-a]pyridin-2-yl-ethyl)-5H-pyrrolo[3,4-c]pyridine-1,3,6-trione [Example 5] | > 500 nM | – | – |
| Cn1cc2c(c(N3CCOCC3)c1=O)C(=O)N(CCc1ccc3ccccc3n1)C2=O [Example 1, 5-Methyl-7-morpholin-4-yl-2-(2-quinolin-2-yl-ethyl)-5H-pyrrolo[3,4-c]pyridine-1,3,6-trione] | < 100 nM | ++ (++: <100 μl min^−1 mg^−1) | ++ (++: <100 μl min^−1 mg^−1) |
| Cn1cc2c(c(N3CCOCC3)c1=O)CN(CCc1ccc3ccccc3n1)C2=O [Example 6, 5-Methyl-7-morpholin-4-yl-2-(2-quinolin-2-yl-ethyl)-1,2-dihydro-5H-pyrrolo[3,4-c]pyridine-3,6-dione] | > 500 nM | ++ (++: <100 μl min^−1 mg^−1) | ++ (++: <100 μl min^−1 mg^−1) |
| CN1CCN(c2c3c(cn(C)c2=O)C(=O)N(CCc2ccc4ccccc4n2)C3)CC1 [Example 7, 5-Methyl-7-(4-methyl-piperazin-1-yl)-2-(2-quinolin-2-yl-ethyl)-1,2-dihydro-5H-pyrrolo[3,4-c]pyridine-3,6-dione] | > 500 nM | ++ (++: <100 μl min^−1 mg^−1) | +++ (+++ <10 μl min^−1 mg^−1) |
| Cn1cc2c(c(-c3ccncc3)c1=O)CN(CCc1ccc3ccccc3n1)C2=O [Example 8, 5-Methyl-7-pyridin-4-yl-2-(2-quinolin-2-yl-ethyl)-1,2-dihydro-5H-pyrrolo[3,4-c]pyridine-3,6-dione] | > 500 nM | – | – |
| Cn1cc2c(c(N3CCOCC3)c1=O)C(=O)N(CCc1ccc3ccccc3n1)C2 [Example 9, 5-Methyl-7-morpholin-4-yl-2-(2-quinolin-2-yl-ethyl)-3,5-dihydro-2H-pyrrolo[3,4-c]pyridine-1,6-dione] | < 100 nM | ++ (++: <100 μl min^−1 mg^−1) | ++ (++: <100 μl min^−1 mg^−1) |
| CN1CCN(c2c3c(cn(C)c2=O)CN(CCc2ccc4ccccc4n2)C3=O)CC1 [Example 10, 5-Methyl-7-(4-methyl-piperazin-1-yl)-2-(2-quinolin-2-yl-ethyl)-3,5-dihydro-2H-pyrrolo[3,4-c]pyridine-1,6-dione] | – | +++ (+++ <10 μl min^−1 mg^−1) | +++ (+++ <10 μl min^−1 mg^−1) |
| Cn1cc2c(c(-c3ccncc3)c1=O)C(=O)N(CCc1ccc3ccccc3n1)C2 [Example 11, 5-Methyl-7-pyridin-4-yl-2-(2-quinolin-2-yl-ethyl)-3,5-dihydro-2H-pyrrolo[3,4-c]pyridine-1,6-dione] | 100 to 200 nM | – | – |
| Cn1cc2c(c(N3CCS(=O)(=O)CC3)c1=O)C(=O)N(CCc1ccc3ccccc3n1)C2 [Example 12, 5-Methyl-7-(1,1-dioxo-thiomorpholin-4-yl)-2-(2-quinolin-2-yl-ethyl)-3,5-dihydro-2H-pyrrolo[3,4-c]pyridine-1,6-dione] | 100 to 200 nM | ++ (++: <100 μl min^−1 mg^−1) | +++ (+++ <10 μl min^−1 mg^−1) |
| Cn1cc2c(c(-c3cccnc3)c1=O)C(=O)N(CCc1ccc3ccccc3n1)C2 [Example 13, 5-Methyl-7-pyridin-3-yl-2-(2-quinolin-2-yl-ethyl)-3,5-dihydro-2H-pyrrolo[3,4-c]pyridine-1,6-dione] | > 500 nM | ++ (++: <100 μl min^−1 mg^−1) | ++ (++: <100 μl min^−1 mg^−1) |
| COc1ccc(Cn2cc3c(c(N4CCOCC4)c2=O)C(=O)N(CCc2ccc4ccccc4n2)C3)cc1 [Example 14, 5-(4-Methoxy-benzyl)-7-morpholin-4-yl-2-(2-quinolin-2-yl-ethyl)-3,5-dihydro-2H-pyrrolo[3,4-c]pyridine-1,6-dione] | < 100 nM | ∘ (∘: >220 μl min^−1 mg^−1) | + (+: 100-220 μl min^−1 mg^−1) |
| O=C1c2c(c[nH]c(=O)c2N2CCOCC2)CN1CCc1ccc2ccccc2n1 [Example 15, 7-Morpholin-4-yl-2-(2-quinolin-2-yl-ethyl)-3,5-dihydro-2H-pyrrolo[3,4-c]pyridine-1,6-dione] | < 100 nM | ++ (++: <100 μl min^−1 mg^−1) | ++ (++: <100 μl min^−1 mg^−1) |
| CCn1cc2c(c(N3CCOCC3)c1=O)C(=O)N(CCc1ccc3ccccc3n1)C2 [Example 16, 5-Ethyl-7-morpholin-4-yl-2-(2-quinolin-2-yl-ethyl)-3,5-dihydro-2H-pyrrolo[3,4-c]pyridine-1,6-dione] | < 100 nM | ++ (++: <100 μl min^−1 mg^−1) | ++ (++: <100 μl min^−1 mg^−1) |
| CC(C)n1cc2c(c(N3CCOCC3)c1=O)C(=O)N(CCc1ccc3ccccc3n1)C2 [Example 17, 5-Isopropyl-7-morpholin-4-yl-2-(2-quinolin-2-yl-ethyl)-3,5-dihydro-2H-pyrrolo[3,4-c]pyridine-1,6-dione] | < 100 nM | ++ (++: <100 μl min^−1 mg^−1) | ++ (++: <100 μl min^−1 mg^−1) |
| COCCn1cc2c(c(N3CCOCC3)c1=O)C(=O)N(CCc1ccc3ccccc3n1)C2 [Example 18, 5-(2-Methoxy-ethyl)-7-morpholin-4-yl-2-(2-quinolin-2-yl-ethyl)-3,5-dihydro-2H-pyrrolo[3,4-c]pyridine-1,6-dione] | < 100 nM | ++ (++: <100 μl min^−1 mg^−1) | ++ (++: <100 μl min^−1 mg^−1) |
| O=C1c2c(cn(CCO)c(=O)c2N2CCOCC2)CN1CCc1ccc2ccccc2n1 [Example 19, 5-(2-Hydroxy-ethyl)-7-morpholin-4-yl-2-(2-quinolin-2-yl-ethyl)-3,5-dihydro-2H-pyrrolo[3,4-c]pyridine-1,6-dione] | < 100 nM | ++ (++: <100 μl min^−1 mg^−1) | +++ (+++ <10 μl min^−1 mg^−1) |
| Cn1cc2c(c(N3CCOCC3)c1=O)C(=O)N(CCc1nc3ccccc3n1C)C2 [Example 20, 5-Methyl-2-[2-(1-methyl-1H-benzoimidazol-2-yl)-ethyl]-7-morpholin-4-yl-3,5-dihydro-2H-pyrrolo[3,4-c]pyridine-1,6-dione] | < 100 nM | ++ (++: <100 μl min^−1 mg^−1) | ++ (++: <100 μl min^−1 mg^−1) |
| Cn1cc2c(c(-c3cccnc3)c1=O)C(=O)N(CCc1nc3ccccc3n1C)C2 [Example 21, 5-Methyl-2-[2-(1-methyl-1H-benzoimidazol-2-yl)-ethyl]-7-pyridin-3-yl-3,5-dihydro-2H-pyrrolo[3,4-c]pyridine-1,6-dione] | 200 to 500 nM | ++ (++: <100 μl min^−1 mg^−1) | ++ (++: <100 μl min^−1 mg^−1) |
| Cn1cc2c(c(N3CCOCC3)c1=O)C(=O)N(CCc1cn3ccccc3n1)C2 [Example 22, 2-(2-Imidazo[1,2-a]pyridin-2-yl-ethyl)-5-methyl-7-morpholin-4-yl-3,5-dihydro-2H-pyrrolo[3,4-c]pyridine-1,6-dione] | < 100 nM | +++ (+++ <10 μl min^−1 mg^−1) | ++ (++: <100 μl min^−1 mg^−1) |
| Cn1cc2c(c(N3CCOCC3)c1=O)C(=O)N(CCc1nc3ccccn3n1)C2 [Example 24, 5-Methyl-7-morpholin-4-yl-2-(2-[1,2,4]triazolo[1,5-a]pyridin-2-yl-ethyl)-3,5-dihydro-2H-pyrrolo[3,4-c]pyridine-1,6-dione] | > 500 nM | ++ (++: <100 μl min^−1 mg^−1) | ++ (++: <100 μl min^−1 mg^−1) |
| Cn1cc2c(c(N3CCOCC3)c1=O)C(=O)N(CCc1nc3n(n1)CCCC3)C2 [Example 25, 5-Methyl-7-morpholin-4-yl-2-[2-(5,6,7,8-tetrahydro-[1,2,4]triazolo[1,5-a]pyridin-2-yl)-ethyl]-3,5-dihydro-2H-pyrrolo[3,4-c]pyridine-1,6-dione] | > 500 nM | +++ (+++ <10 μl min^−1 mg^−1) | +++ (+++ <10 μl min^−1 mg^−1) |
| Cn1cc2c(c(-c3cccnc3)c1=O)C(=O)N(CCc1nc3ccccn3n1)C2 [Example 26, 5-Methyl-7-pyridin-3-yl-2-(2-[1,2,4]triazolo[1,5-a]pyridin-2-yl-ethyl)-3,5-dihydro-2H-pyrrolo[3,4-c]pyridine-1,6-dione] | > 500 nM | +++ (+++ <10 μl min^−1 mg^−1) | ++ (++: <100 μl min^−1 mg^−1) |
| Cn1nccc1-c1c2c(cn(C)c1=O)CN(CCc1ccc3ccccc3n1)C2=O [Example 30, 5-Methyl-7-(2-methyl-2H-pyrazol-3-yl)-2-(2-quinolin-2-yl-ethyl)-3,5-dihydro-2H-pyrrolo[3,4-c]pyridine-1,6-dione] | > 500 nM | – | – |
| Cn1cc2c(c(N3CCOCC3)c1=O)C(=O)N(CCc1ccc3ccccc3n1)C2(F)F [Example 35, 3,3-Difluoro-5-methyl-7-morpholin-4-yl-2-(2-quinolin-2-yl-ethyl)-3,5-dihydro-2H-pyrrolo[3,4-c]pyridine-1,6-dione] | < 100 nM | – | – |
